Data as given in patent publication US7518005B2, “Water-soluble anti-dandruff compounds and compositions thereof” (Galaxy Surfactants Limited, priority 2005, dated 2009).

Experiments:
M. furfur [1] = experiment: Zone of inhibition of M. furfur in SLES, comparison with Undecylenic amido propyl betain (Example 7); type: cell-based
Description: Undecylenic amido propyl betain is a reported anti-dandruff product, so Undecylenic amidopropyl dimethyl Hydroxy ethyl ammonium undecylenate was compared. Carried out of zone of inhibition of M. furfur against 1, 2%, 5% & 7% Undecylenic amido propyl betain in SLES and compared it with Undecylenic amido propyl dimethyl Hydroxy ethyl ammonium undecylenate

[2] = Viscosity booster effect in shampoo formulation; settings: 15% active sodium lauryl ether sulfate, 2% booster
M. furfur [3] = experiment: Zone of inhibition against M. furfur, comparison with other known anti-dandruff agents (Example 5); type: cell-based
Description: M. furfur is one of the microorganism, which causes dandruff Method of Analysis: Zone of Inhibition Principle: Larger the zone of inhibition greater is the anti-dandruff activity.

C=CCCCCCCCCC(=O)NCCC[N+](C)(C)CC(=O)[O-] [Undecylenic amidopropyl betaine]
Comments (M. furfur [1]; 1%): Less
Zone of inhibition in mm (M. furfur [1]; 1%): 3 mm
Comments (M. furfur [1]; 2%): Less
Zone of inhibition in mm (M. furfur [1]; 2%): 6 mm
Comments (M. furfur [1]; 5%): Less
Zone of inhibition in mm (M. furfur [1]; 5%): 6 mm
Comments (M. furfur [1]; 7%): Effective
Zone of inhibition in mm (M. furfur [1]; 7%): 8 mm

Cocomonoethanolamide [CMEA]
Viscosity in cps at 28° C. ([2]; Sodium chloride 0.5%): 55 cps
Viscosity in cps at 28° C. ([2]; Sodium chloride 1.0%): 600 cps
Viscosity in cps at 28° C. ([2]; Sodium chloride 1.5%): 3000 cps
Viscosity in cps at 28° C. ([2]; Sodium chloride 2.0%): 11000 cps
Viscosity in cps at 28° C. ([2]; Sodium chloride 2.5%): 17000 cps

C=CCCCCCCCCC(=O)NCCC[N+](C)(C)CCOCCO.[Cl-] [Undecylenic amidopropyl dimethyl Hydroxy ethoxy ethyl ammonium chloride]
Comments (M. furfur [3]; Concent. 0.5%): Less
Zone of inhibition in mm (M. furfur [3]; Concent. 0.5%): 2 mm
Comments (M. furfur [3]; Concent. 1%): Less
Zone of inhibition in mm (M. furfur [3]; Concent. 1%): 3 mm
Comments (M. furfur [3]; Concent. 1.5%): Less
Zone of inhibition in mm (M. furfur [3]; Concent. 1.5%): 6 mm
Comments (M. furfur [3]; Concent. 2%): Effective
Zone of inhibition in mm (M. furfur [3]; Concent. 2%): 8 mm

Undecylenic monoethanol amido sulfosuccinate
Comments (M. furfur [3]; Concent. 0.5%): Not effective
Zone of inhibition in mm (M. furfur [3]; Concent. 0.5%): 0 mm
Comments (M. furfur [3]; Concent. 1%): Not effective
Zone of inhibition in mm (M. furfur [3]; Concent. 1%): 0 mm
Comments (M. furfur [3]; Concent. 1.5%): Not effective
Zone of inhibition in mm (M. furfur [3]; Concent. 1.5%): 0 mm
Comments (M. furfur [3]; Concent. 2%): Not effective
Zone of inhibition in mm (M. furfur [3]; Concent. 2%): 0 mm

C=CCCCCCCCCC(=O)NCCO [Undecylenic mono ethanolamide]
Comments (M. furfur [3]; Concent. 0.5%): Not effective
Zone of inhibition in mm (M. furfur [3]; Concent. 0.5%): 0 mm
Comments (M. furfur [3]; Concent. 1%): Less
Zone of inhibition in mm (M. furfur [3]; Concent. 1%): 2 mm
Comments (M. furfur [3]; Concent. 1.5%): Less
Zone of inhibition in mm (M. furfur [3]; Concent. 1.5%): 4 mm
Comments (M. furfur [3]; Concent. 2%): Less
Zone of inhibition in mm (M. furfur [3]; Concent. 2%): 6 mm
